This note sets out measurements from patent US20110218189A1, “PYRROLO[2,3-d]PYRIMIDIN-2-YL-AMINE DERIVATIVES AS PKC-THETA INHIBITORS” (N.V. ORGANON, priority 2008, published 2011).

Molecules are shown by their SMILES.

The target in the test is T1, His-tagged human recombinant active PKC theta (Homo sapiens, UniProt Q04759).
T1 construct: His; made in house
Description: IMAP fluorescence polarization assay, inhibition of PKC theta kinase activity. Type of test: biochemical. The following applies: ATP 10 μM, peptide substrate 50 nM, 60 minutes at 30° C.; read-out: IC50 IMAP PKCθ. The procedure: Inhibition of PKC theta kinase activity was measured using an Immobilized Metal for Phosphochemicals—based coupled assay (IMAP). IMAP is a homogeneous fluorescence polarization (FP) assay based on affinity capture of phosphorylated peptide substrates. IMAP uses fluorescein-labeled peptide substrates that, upon phosphorylation by a protein kinase, bind to so called IMAP nanoparticles, which are derivatized with trivalent metal complexes. Such binding causes a change in the rate of the molecular motion of the peptide, and results in an increase in the FP value observed for the fluorescein label attached to the substrate peptide. In this assay, PKC theta directly phosphorylates the fluorescein-labeled peptide substrate.
Enzymes, substrate and ATP are diluted at all steps in Kinase Reaction buffer (10 mM Tris-HCl, 10 mM MgCl2, 0.01% Tween-20, 0.05% NaN3 pH 7.2, 1 mM DTT). The final volume at the kinase reaction step of the assay in the 384-well plate is 20 μl. The concentrations presented within brackets are final concentrations. First, compounds or DMSO (1%) are added to the wells. Thereafter, peptide substrate (Pseudosubstrate LHQRRGSIKQAKVHHVK-FL, Neosystem, 50 nM) and ATP (10 μM) are added followed by the addition of the PKC theta enzyme (His-tagged human recombinant active PKC theta, 82 kDa, in-house purified, 10 ng/ml), and the mix is incubated for 60 minutes at 30° C. in the dark. Then IMAP progressive binding buffer (100% 1× buffer A, 1:400 Progressive Binding Reagent; Molecular Devices) is added followed by an incubation step of 60 minutes at room temperature in the dark. Finally, the FP signal is read.

T1 sequence (Q04759 whole entry): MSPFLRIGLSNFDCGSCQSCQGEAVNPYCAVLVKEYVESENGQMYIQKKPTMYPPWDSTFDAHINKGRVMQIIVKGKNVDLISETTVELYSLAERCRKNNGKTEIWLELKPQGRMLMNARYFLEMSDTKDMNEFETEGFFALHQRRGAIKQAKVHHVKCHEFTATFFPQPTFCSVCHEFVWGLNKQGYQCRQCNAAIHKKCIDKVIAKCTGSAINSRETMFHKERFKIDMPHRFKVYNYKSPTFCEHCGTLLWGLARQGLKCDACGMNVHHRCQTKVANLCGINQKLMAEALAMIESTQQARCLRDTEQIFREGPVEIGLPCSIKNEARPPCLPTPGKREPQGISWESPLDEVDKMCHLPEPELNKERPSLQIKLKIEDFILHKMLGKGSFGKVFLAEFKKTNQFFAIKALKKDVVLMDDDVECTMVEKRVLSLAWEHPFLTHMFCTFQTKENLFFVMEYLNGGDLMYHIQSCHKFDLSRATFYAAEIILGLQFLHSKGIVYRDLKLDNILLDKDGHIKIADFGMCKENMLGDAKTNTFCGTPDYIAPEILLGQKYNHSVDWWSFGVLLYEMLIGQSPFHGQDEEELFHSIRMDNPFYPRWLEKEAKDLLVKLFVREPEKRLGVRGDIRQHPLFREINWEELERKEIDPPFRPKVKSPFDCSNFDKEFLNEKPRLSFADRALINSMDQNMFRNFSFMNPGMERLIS

For the compound `Fc1ccc(CNc2ncc3cc(-c4c(Cl)cccc4Cl)n(C4CCCNCC4)c3n2)cc1F` (stereo not shown) [Example 8.2, 7-(Azepan-4-yl)-6-(2,6-dichlorophenyl)-N-(3,4-difluorobenzyl)-7H-pyrrolo[2,3-d]pyrimidin-2-amine], the 50% inhibitory concentration (IC50) was less than 10 nM.
